Data taken from US20220288077A1, “PROSTATITIS TREATMENT” (NATIONAL INSTITUTE OF BIOLOGICAL SCIENCES, priority 2019, published 2022).

Tested on: carrageenan-induced male rat prostate disease model
Experiment: Carrageenan-induced male rat prostate disease model: representative RIP1, RIP3 and MLKL inhibitors
Format: in vivo
Conditions: list after the methods of the example; protocols based on RIPA-56
Method: Experimental protocols for the compounds of Table 1 were based on those used for RIPA-56. Each inhibitor was intraperitoneally or orally administrated to rat before carrageenan treatment, at the dose of 20 mg/kg to 100 mg/kg.
Each inhibitor was intraperitoneally or orally administrated to rat before carrageenan treatment, at the dose of 20 mg/kg to 100 mg/kg.
All the SD rats were randomly divided into different groups (n=8-10): control group, model group, and compounds-treated groups. For injection of carrageenan or saline, rats were anesthetized with 4% chloral hydrate and were fixed in a supine position. […] A small midline incision was made in the sterile area, then the bladder and the prostate carefully exposed. With a 30-gauge needle, 50 ul sterile suspension of 3% carrageenan (Sigma, MO, USA) or saline (sham group) was injected into both right and left ventral lobes of the prostate gland. […] While an equal amount of solvents were intraperitoneally and orally injected to control rats.

Structure (SMILES) | listed under heading Active RIP1 Inhibitors | other results
O=c1c2c3c(sc2ncn1Cc1ccccc1)CCC3 [3-benzyl-6,7-dihydro-3H-cyclopenta[4,5]thieno[2,3-d]pyrimidin-4(5H)-one] | Active | –
CCC(C)(C)C(=O)N(O)Cc1cc(F)c(F)c(F)c1 [N-Hydroxy-2,2-dimethyl-N-(3,4,5-trifluorobenzyl)butanamide] | Active | –
CN1C(=O)[C@@H](NC(=O)c2nnc(Cc3ccccc3)[nH]2)COc2ccccc21 [(S)-5-benzyl-N-(5-methyl-4-oxo-2,3,4,5-tetrahydrobenzo[b][1,4]oxazepin-3-yl)-4H-1,2,4-triazole-3-carboxamide] | Active | –
CCC(C)(C)C(=O)N(O)Cc1ccccc1 [N-Benzyl-N-hydroxy-2,2-dimethylbutanamide] | Active | –
CN(c1ccc(NC(=O)Nc2ccc(OC(F)(F)F)cc2)cc1)c1ccnc(Nc2cccc(S(N)(=O)=O)c2)n1 [Compound 1, 3-((4-(methyl(4-(3-(4-(trifluoromethoxy)phenyl)ureido)phenyl)amino)pyrimidin-2-yl)amino)benzenesulfonamide] | – | listed under heading Active MLKL Inhibitors: Active
C[C@H](NC(=O)c1snnc1C1CC1)c1c(F)cccc1Cl [(S)—N-(1-(2-chloro-6-fluorophenyl)ethyl)-4-cyclopropyl-1,2,3-thiadiazole-5-carboxamide] | Active | –
CCC(C)(C)C(=O)N(O)Cc1ccc(F)cc1F [N-(2,4-Difluorobenzyl)-N-hydroxy-2,2-dimethylbutanamide] | Active | –
CN1C(=O)N[C@H](Cc2c[nH]c3c(Cl)cccc23)C1=O [(R)-5-((7-chloro-1H-indol-3-yl)methyl)-3-methylimidazolidine-2,4-dione] | Active | –
CN1C(=O)[C@@H](NC(=O)c2cc(Cc3ccccc3)on2)COc2ccc(-c3nnn[nH]3)cc21 [(S)-5-benzyl-N-(5-methyl-4-oxo-7-(1H-tetrazol-5-yl)-2,3,4,5-tetrahydrobenzo[b][1,4]oxazepin-3-yl)isoxazole-3-carboxamide] | Active | –
C#CCn1c(=O)n(C)c(=O)c2c1nc(S(C)(=O)=O)n2C [TC13-106, 1,7-dimethyl-8-(methylsulfonyl)-3-(prop-2-ynyl)-1H-purine-2,6(3H,7H)-dione] | – | listed under heading Active MLKL Inhibitors: Active
O=C(N1CCCC1c1cccc(F)c1)C1(C(F)(F)F)CCCC1 (centres unmarked) [(2-(3-fluorophenyl)pyrrolidin-1-yl)(1-(trifluoromethyl)cyclopentyl)methanone] | Active | –
Cc1cc(-c2cnc(N)c3c(-c4ccc5scnc5c4)csc23)n(C)n1 [GSK'843, 3-(benzo[d]thiazol-5-yl)-7-(1,3-dimethyl-1H-pyrazol-5-yl)thieno[3,2-c]pyridin-4-amine] | – | listed under heading Active RIP3 Inhibitors: Active
Nc1ncnc2occ(-c3ccc(NC(=O)Nc4cc(C(F)(F)F)ccc4F)cc3)c12 [Cpd27, 1-(4-(4-aminofuro[2,3-d]pyrimidin-5-yl)phenyl)-3-(2-fluoro-5-(trifluoromethyl)phenyl)urea] | Active | –
Cn1c(=O)c2c(nc(S(C)(=O)=O)n2C)n(CC#N)c1=O [TC13-107, 2-(1,7-dimethyl-8-(methylsulfonyl)-2,6-dioxo-1H-purin-3(2H,6H,7H)-yl)acetonitrile] | – | listed under heading Active MLKL Inhibitors: Active
CCC(C)(C)C(=O)N1C(=O)C[C@H]1c1ccccc1 [(S)-1-(2,2-dimethylbutanoyl)-4-phenylazetidin-2-one] | Active | –
CC(=O)N1CCC(C(=O)N2N=CC[C@H]2c2ccccc2)CC1 [(S)-1-(4-(5-phenyl-4,5-dihydro-1H-pyrazole-1-carbonyl)piperidin-1-yl)ethanone] | Active | –
CN1C(=O)[C@@H](NC(=O)c2n[nH]c(Cc3ccccc3)n2)COc2ccccc21 [GSK2982772, (S)-5-benzyl-N-(5-methyl-4-oxo-2,3,4,5-tetrahydrobenzo[b]-[1,4]oxazepin-3-yl)-1H-1,2,4-triazole-3-carboxamide] | Active | –
C#CC(C)(C)C(=O)N1CC[C@H]1c1ccccc1 [(S)-2,2-dimethyl-1-(2-phenylazetidin-1-yl)but-3-yn-1-one] | Active | –
Cc1cccc2c(CC3NC(=O)N(C)C3=O)c[nH]c12 (centres unmarked) [3-methyl-5-((7-methyl-1H-indol-3-yl)methyl)imidazolidine-2,4-dione] | Active | –

Structure (SMILES) | listed under heading Active RIP1 Inhibitors | other results
CC(=O)N1CCC(C(=O)N2N=CC[C@H]2c2cc(F)cc(F)c2)CC1 [(S)-1-(4-(5-(3,5-difluorophenyl)-4,5-dihydro-1H-pyrazole-1-carbonyl)piperidin-1-yl)ethanone] | Active | –
CCC(C)(C)C(=O)N(O)Cc1ccc(F)cc1 [N-(4-Fluorobenzyl)-N-hydroxy-2,2-dimethylbutanamide] | Active | –
COc1ccc(OC)c(CS(=O)(=O)c2nc3c(c(=O)n(C)c(=O)n3C)n2C)c1 [TC13-58, (2,5-dimethoxybenzylsulfonyl)-1,3,7-trimethyl-1H-purine-2,6(3H,7H)-dione] | – | listed under heading Active MLKL Inhibitors: Active
CC(C)S(=O)(=O)c1ccc2nccc(Nc3ccc4scnc4c3)c2c1 [GSK'872, N-(6-(isopropylsulfonyl)quinolin-4-yl)benzo[d]thiazol-5-amine] | – | listed under heading Active RIP3 Inhibitors: Active
CCC(C)(C)C(=O)N(O)Cc1ccc(F)c(F)c1F [N-Hydroxy-2,2-dimethyl-N-(2,3,4-trifluorobenzyl)butanamide] | Active | –
Cc1ccc(CCCCN2C(=O)N[C@H](Cc3c[nH]c4c(Cl)cccc34)C2=O)cc1C#Cc1cnc2cccnn12 [Ponatinib-Nec1s, (R)-5-((7-chloro-1H-indol-3-yl)methyl)-3-(4-(3-(imidazo[1,2-b]pyridazin-3-ylethynyl)-4-methylphenyl)butyl)imidazolidine-2,4-dione] | Active | –
Cn1c(=O)c2c(nc(S(=O)(=O)CC3CC3)n2C)n(CC#Cc2cccc(Cl)c2)c1=O [TC13-119, 3-(3-(3-chlorophenyl)prop-2-yn-1-yl)-8-((cyclopropylmethyl)sulfonyl)-1,7-dimethyl-3,7-dihydro-1H-purine-2,6-dione] | – | listed under heading Active MLKL Inhibitors: Active
O=C(NCc1c(F)ccc(Cl)c1F)c1snnc1C1CC1 [N-(3-chloro-2,6-difluorobenzyl)-4-cyclopropyl-1,2,3-thiadiazole-5-carboxamide] | Active | –
CNc1cc(C#CCn2c(=O)n(C)c(=O)c3c2nc(S(=O)(=O)Cc2cc(OC)ccc2OC)n3C)ccn1 [TC13-127, 8-((2,5-dimethoxybenzyl)sulfonyl)-1,7-dimethyl-3-(3-(2-(methylamino)pyridin-4-yl)prop-2-yn-1-yl)-3,7-dihydro-1H-purine-2,6-dione] | – | listed under heading Active MLKL Inhibitors: Active
COc1nccnc1NS(=O)(=O)c1ccc(NC(=O)/C=C/c2ccc([N+](=O)[O-])s2)cc1 [Necrosulfonamide, (2E)-N-[4-[[(3-Methoxy-2-pyrazinyl)amino]sulfonyl]phenyl]-3-(5-nitro-2-thienyl)-2-propenamide] | – | listed under heading Active MLKL Inhibitors: Active
CC(C)(C)C(=O)N1N=CC[C@H]1c1ccccn1 [(S)-2,2-dimethyl-1-(5-(pyridin-2-yl)-4,5-dihydro-1H-pyrazol-1-yl)propan-1-one] | Active | –
O=C(N1CCCC1c1cccc(F)c1)C1(C(F)(F)F)CCC1 (centres unmarked) [(2-(3-fluorophenyl)pyrrolidin-1-yl)(1-(trifluoromethyl)cyclobutyl)methanone] | Active | –
O=C(c1ccccc1)N1N=CC[C@H]1c1ccccc1 [(S)-phenyl(5-phenyl-4,5-dihydro-1H-pyrazol-1-yl)methanone] | Active | –
CN1C(=O)[C@@H](NC(=O)c2cc(Cc3ccccc3)on2)COc2ccccc21 [GSK481, (S)-5-benzyl-N-(5-methyl-4-oxo-2,3,4,5-tetrahydrobenzo[b][1,4]oxazepin-3-yl)isoxazole-3-carboxamide] | Active | –
CC(C)(C)c1nc(-c2cccc(NS(=O)(=O)c3c(F)cccc3F)c2F)c(-c2ccnc(N)n2)s1 [Dabrafenib, N-[3-[5-(2-amino-4-pyrimidinyl)-2-(1,1-dimethylethyl)-4-thiazolyl]-2-fluorophenyl]-2,6-difluoro-benzenesulfonamide] | – | listed under heading Active RIP3 Inhibitors: Active
CCn1c(S(C)(=O)=O)nc2c1c(=O)n(C)c(=O)n2C [TC13-74, 7-ethyl-1,3-dimethyl-8-(methylsulfonyl)-1H-purine-2,6(3H,7H)-dione] | – | listed under heading Active MLKL Inhibitors: Active
O=C1CCCc2ccc(Br)cc2N1 [8-bromo-4,5-dihydro-1H-benzo[b]azepin-2(3H)-one] | Active | –
CCC(C)(C)C(=O)N(O)Cc1cc(F)cc(F)c1F [N-Hydroxy-2,2-dimethyl-N-(2,3,5-trifluorobenzyl)butanamide] | Active | –
C=CC(C)(C)C(=O)N1C(=O)C[C@H]1c1ccccc1 [(S)-1-(2,2-dimethylbut-3-enoyl)-4-phenylazetidin-2-one] | Active | –
